{
  "source": "patent US20240398886A1",
  "about": "“EFFECTIVE EYELID, FACE, HEAD AND BODY CLEANSER” (priority 2023, published 2024)",
  "origin": "cited, not measured here",
  "key": {"[1]": {"details": "mammals; refs (12, 13)"}, "[2]": {"details": "humans and warm-blooded vertebrates; refs (12, 13)"}},
  "data": [
    {"smiles": "C/C=C(\\C)C(=O)O[C@H]1C[C@@H](OC(C)=O)[C@@]2(C(=O)OC)CO[C@H]3[C@@H](O)[C@@](C)([C@]45O[C@@]4(C)[C@H]4C[C@@H]5O[C@@H]5OC=C[C@@]54O)[C@H]4[C@]1(CO[C@]4(O)C(=O)OC)[C@@H]32", "note": "[Azadirachtin]", "values": [
      {"measurement": "genotoxicity", "setting": "[1]", "value": "without genotoxicity"},
      {"measurement": "toxicity", "setting": "[2]", "value": "non-toxic"}
    ]}
  ]
}
